The source of these data is US20240336594A1, “SIX-MEMBERED ARYL OR HETEROARYL AMIDES, AND COMPOSITION AND USE THEREOF” (BETTA PHARMACEUTICALS CO., LTD, priority 2021, published 2024).

pIC50: −log10 of the molar value. Some results are limits rather than exact numbers.

Broadly, the pIC50 is the negative decadic logarithm of the IC50, by convention in mol/L.

In the assay the target is T1, MALT1 (Homo sapiens, UniProt Q9UDY8).
T1 sequence (Q9UDY8 1-824): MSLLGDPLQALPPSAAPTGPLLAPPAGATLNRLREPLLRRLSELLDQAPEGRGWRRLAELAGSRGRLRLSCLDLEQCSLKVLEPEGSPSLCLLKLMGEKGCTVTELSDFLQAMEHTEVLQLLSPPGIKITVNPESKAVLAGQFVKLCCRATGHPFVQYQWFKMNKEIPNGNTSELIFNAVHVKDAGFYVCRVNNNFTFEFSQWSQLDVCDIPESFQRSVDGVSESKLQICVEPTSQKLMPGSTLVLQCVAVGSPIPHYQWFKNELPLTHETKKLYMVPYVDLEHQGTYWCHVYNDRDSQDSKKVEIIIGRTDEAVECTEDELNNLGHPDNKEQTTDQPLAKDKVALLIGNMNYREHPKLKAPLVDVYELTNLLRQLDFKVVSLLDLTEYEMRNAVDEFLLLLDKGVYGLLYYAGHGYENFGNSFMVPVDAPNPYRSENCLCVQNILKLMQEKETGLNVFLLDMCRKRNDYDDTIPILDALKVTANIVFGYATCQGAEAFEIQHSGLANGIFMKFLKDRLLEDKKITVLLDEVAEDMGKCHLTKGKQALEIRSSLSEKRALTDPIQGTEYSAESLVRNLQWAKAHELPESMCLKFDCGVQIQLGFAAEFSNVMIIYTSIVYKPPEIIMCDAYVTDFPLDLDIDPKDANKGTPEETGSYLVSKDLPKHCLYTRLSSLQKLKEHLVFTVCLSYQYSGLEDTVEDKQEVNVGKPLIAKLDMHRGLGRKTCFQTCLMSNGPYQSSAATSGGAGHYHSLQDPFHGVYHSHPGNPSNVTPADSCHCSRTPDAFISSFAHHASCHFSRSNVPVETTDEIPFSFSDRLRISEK
Briefly: MALT1 protease inhibition assay (AMC-labeled peptide, fluorescence 360/460). Type of assay: biochemical. Conditions: substrate Ac-LRSR-AMC, 15 min preincubation, 90 min at 25° C. Here is the method: Test compounds of the present invention (in 100% DMSO) were spotted into a 384-well dilution plate and serially diluted to the required concentrations with DMSO. Then, 0.2 μL of the test compounds were transferred into a new 384-well reaction plate by Echo following centrifugation. The MALT enzyme and its substrate, AMC-labeled peptide, were prepared in 1× protease buffer to yield 2× enzyme solution and 2× peptide solution. Subsequently, 10 μL of 2× enzyme solution was added into the 384-well reaction plate, incubating with the test compounds for 15 minutes at 25° C. After that, 10 μL of 2× peptide solution was added into the plate, continuing to incubate for 90 minutes at 25° C. The plate was then placed on an Envision multifunctional microplate reader to collect raw data, which would be converted into inhibition rate:
Inhibition rate %=(max−sample)/(max−min)*100%. • “max” values were measured using the reaction with enzyme but no compound treated, while “min” values were generated from control wells containing assay buffer without enzyme.
Curve fitting was done with Graphpad Prism software to determine the IC50 values. The specific experimental operations are as follows:
58.82 g Na Citrate·2H2O powder was added into 140 mL ddH2O and mixed in a 37° C. water bath. Once there were no visible particles, the remaining solutions were added successively with continuous stirring for 10 minutes. The final volume was adjusted to 200 mL. The buffer was stored at room temperature. DTT was added before use.
• 1) All test compounds were diluted from 10 mM stock solution into 1 mM in a 384 well dilution plate (labcyte, PP-0200); • 2) Ten various concentrations of the diluted compound solution above were obtained by serial dilution at an equal ratio of 1:3; • 3) 0.2 μL DMSO was transferred to two empty wells of the 384 reaction plate as blank controls without compound and enzyme respectively; • 4) 0.2 μL of the test compound at different concentrations was also transferred into the 384 reaction plate by Echo, with two duplicate wells for each concentration, then the plate was centrifuged at 1000 rpm for 1 min.
• 1) The MALT1 protease and AMC-labeled peptide was prepared in 1× protease buffer to obtain 2× enzyme solution and 2× peptide solution. 10 μL of 2× enzyme solution was added into the 384-well reaction plate. The plate was centrifuged at 1000 rpm for 1 min and incubated for 15 min at 25° C. • 2) 10 μL of 2× peptide solution was then transferred to the 384 reaction plate, and the plate was centrifuged at 1000 rpm for 1 min and incubate for 90 min at 25° C.
`C#Cc1cnccc1-c1cc(Cl)c(C(=O)Nc2cnc(C(=O)NCC(=O)N(CC)CC)c(Cl)c2)cc1F` [Example A435, 3-chloro-5-(2-chloro-4-(3-ethynylpyridin-4-yl)-5-fluorobenzamido)-N-(2-(diethylamino)-2-oxoethyl)picolinamide] had a pIC50 of 7.00 to 8.00.
To `CC1(CNC(=O)c2ncc(NC(=O)c3cc(F)c(-c4ccc(F)cc4N)cc3Cl)cc2Cl)CC1` [Example A436, 5-(2′-amino-5-chloro-2,4′-difluoro-[1,1′-biphenyl]-4-carboxamido)-3-chloro-N-((1-methylcyclopropyl)methyl) picolinamide] belongs 6.30 to 7.00; to `Nc1cc(F)ccc1-c1cc(Cl)c(C(=O)Nc2cnc(C(=O)NCC3CCS(=O)(=O)CC3)c(Cl)c2)cc1F` [Example A437, 5-(2′-amino-5-chloro-2,4′-difluoro-[1,1′-biphenyl]-4-carboxamido)-3-chloro-N-((1,1-dioxidotetrahydro-2H-thiopyran-4-yl)methyl)picolinamide], 7.00 to 8.00; to `CCCCNC(=O)c1ncc(NC(=O)c2cc(F)c(-c3ccc(F)cc3N)cc2Cl)cc1Cl` [Example A438, 5-(2′-amino-5-chloro-2,4′-difluoro-[1,1′-biphenyl]-4-carboxamido)-N-butyl-3-chloropicolinamide], 7.00 to 8.00.
`C#CCNC(=O)c1ncc(NC(=O)c2cc(F)c(-c3ccc(F)cc3N)cc2Cl)cc1Cl` [Example A439, 5-(2′-amino-5-chloro-2,4′-difluoro-[1,1′-biphenyl]-4-carboxamido)-3-chloro-N-(prop-2-yn-1-yl) picolinamide] had a pIC50 below 6.30.
In the case of `O=C(Nc1cnc(-n2nccn2)c(C(F)(F)F)c1)c1cc(F)c(-c2c(Br)cncc2[N+](=O)[O-])cc1Cl` [Example A440, N-(6-(2H-1,2,3-triazol-2-yl)-5-(trifluoromethyl)pyridin-3-yl)-4-(3-bromo-5-nitropyridin-4-yl)-2-chloro-5-fluorobenzamide] it was 7.00 to 8.00.
As to `N#CCNC(=O)c1ncc(NC(=O)c2cc(F)c(-c3ccc(F)cc3N)cc2Cl)cc1Cl` [Example A441, 5-(2′-amino-5-chloro-2,4′-difluoro-[1,1′-biphenyl]-4-carboxamido)-3-chloro-N-(cyanomethyl)picolinamide], the pIC50 is 7.00 to 8.00.
In the case of `Cc1cc(F)cc(N)c1-c1cc(Cl)c(C(=O)Nc2cnc(C(=O)NCC#N)c(Cl)c2)cc1F` [Example A442, 5-(2′-amino-5-chloro-2,4′-difluoro-6′-methyl-[1,1′-biphenyl]-4-carboxamido)-3-chloro-N-(cyanomethyl)picolinamide] it was 7.00 to 8.00.
On to `Nc1cc(F)ccc1-c1cc(Cl)c(C(=O)Nc2cnc(C(=O)NCC(F)(F)F)c(Cl)c2)cc1F` [Example A443, 5-(2′-amino-5-chloro-2,4′-difluoro-[1,1′-biphenyl]-4-carboxamido)-3-chloro-N-(2,2,2-trifluoroethyl)picolinamide], for which the pIC50 is at least 8.00.
In the case of `CCNC(=O)c1ncc(NC(=O)c2cc(F)c(-c3ccc(F)cc3N)cc2Cl)cc1Cl` [Example A444, 5-(2′-amino-5-chloro-2,4′-difluoro-[1,1′-biphenyl]-4-carboxamido)-3-chloro-N-ethylpicolinamide] it was at least 8.00; in that of `O=C(Nc1cnc(-n2nccn2)c(Cl)c1)c1cc(F)c(-c2ccncc2C2CC2)cc1Cl` [Example A445, 2-chloro-N-(5-chloro-6-(2H-1,2,3-triazol-2-yl)pyridin-3-yl)-4-(3-cyclopropylpyridin-4-yl)-5-fluorobenzamide], 7.00 to 8.00; in that of `CC(C)(C)CNC(=O)c1ncc(NC(=O)c2cc(F)c(-c3ccc(F)cc3N)cc2Cl)cc1Cl` [Example A446, 5-(2′-amino-5-chloro-2,4′-difluoro-[1,1′-biphenyl]-4-carboxamido)-3-chloro-N-neopentylpicolinamide], at least 8.00.
In the case of `Nc1cc(F)ccc1-c1cc(Cl)c(C(=O)Nc2cnc(C(=O)NCc3ccoc3)c(Cl)c2)cc1F` [Example A447, 5-(2′-amino-5-chloro-2,4′-difluoro-[1,1′-biphenyl]-4-carboxamido)-3-chloro-N-(furan-3-ylmethyl)picolinamide], the negative logarithm of the IC50 (pIC50) was 7.00 to 8.00.
To `COCCNC(=O)c1ncc(NC(=O)c2cc(F)c(-c3ccc(F)cc3N)cc2Cl)cc1Cl` [Example A449, 5-(2′-amino-5-chloro-2,4′-difluoro-[1,1′-biphenyl]-4-carboxamido)-3-chloro-N-(2-methoxyethyl)picolinamide] belongs 7.00 to 8.00; to `CC(C#N)NC(=O)c1ncc(NC(=O)c2cc(F)c(-c3ccc(F)cc3N)cc2Cl)cc1Cl` (stereo not shown) [Example A450, 5-(2′-amino-5-chloro-2,4′-difluoro-[1,1′-biphenyl]-4-carboxamido)-3-chloro-N-(1-cyanoethyl)picolinamide], 7.00 to 8.00.
In the case of `Nc1cc(F)ccc1-c1cc(Cl)c(C(=O)Nc2cnc(C(=O)NCC3CC(F)(F)C3)c(Cl)c2)cc1F` [Example A451, 5-(2′-amino-5-chloro-2,4′-difluoro-[1,1′-biphenyl]-4-carboxamido)-3-chloro-N-((3,3-difluorocyclobutyl)methyl) picolinamide] it was 7.00 to 8.00.
`Nc1cc(F)ccc1-c1cc(Cl)c(C(=O)Nc2cnc(C(=O)NCc3nnco3)c(Cl)c2)cc1F` [Example A452, N-((1,3,4-oxadiazol-2-yl)methyl)-5-(2′-amino-5-chloro-2,4′-difluoro-[1,1′-biphenyl]-4-carboxamido)-3-chloropicolinamide] gave a pIC50 of 6.30 to 7.00.
In the case of `CN(C)CCNC(=O)c1ncc(NC(=O)c2cc(F)c(-c3ccc(F)cc3N)cc2Cl)cc1Cl` [Example A453, 5-(2′-amino-5-chloro-2,4′-difluoro-[1,1′-biphenyl]-4-carboxamido)-3-chloro-N-(2-(dimethylamino)ethyl) picolinamide] it was 6.30 to 7.00; in that of `Nc1cc(F)ccc1-c1cc(Cl)c(C(=O)Nc2cnc(C(=O)NCC3CCC3)c(Cl)c2)cc1F` [Example A454, 5-(2′-amino-5-chloro-2,4′-difluoro-[1,1′-biphenyl]-4-carboxamido)-3-chloro-N-(cyclobutylmethyl) picolinamide], 6.30 to 7.00; in that of `Cn1ccc(CNC(=O)c2ncc(NC(=O)c3cc(F)c(-c4ccc(F)cc4N)cc3Cl)cc2Cl)n1` [Example A455, 5-(2′-amino-5-chloro-2,4′-difluoro-[1,1′-biphenyl]-4-carboxamido)-3-chloro-N-((1-methyl-1H-pyrazol-3-yl)methyl)picolinamide], 7.00 to 8.00.
To `N#CCNC(=O)c1ncc(NC(=O)c2cc(F)c(-c3ccc(F)nc3N)cc2Cl)cc1Cl` [Example A456, 5-(4-(2-amino-6-fluoropyridin-3-yl)-2-chloro-5-fluorobenzamido)-3-chloro-N-(cyanomethyl)picolinamide] belongs 7.00 to 8.00.
In the case of `Nc1cc(F)ccc1-c1cc(Cl)c(C(=O)Nc2cnc(C(=O)NCC(F)(F)C(F)(F)C(F)(F)F)c(Cl)c2)cc1F` [Example A458, 5-(2′-amino-5-chloro-2,4′-difluoro-[1,1′-biphenyl]-4-carboxamido)-3-chloro-N-(2,2,3,3,4,4,4-heptafluorobutyl) picolinamide] it was below 6.30.
